Results from patent publication US12071408B2, “Multi-targeted tyrosine kinase inhibitors effective in antitumor uses” (Shanghai AB PharmaTech Ltd., priority 2021, dated 2024).

How the values were obtained:
C-MET = C-MET (Homo sapiens (Human), UniProt P08581); assay: Kinase inhibition, Mobility-Shift Assay; type: biochemical; conditions: class; read-out: C-MET range of activity (IC50)
FGFR4 = FGFR4 (Homo sapiens (Human), UniProt P22455); assay: Kinase inhibition, Mobility-Shift Assay; type: biochemical; conditions: class; read-out: FGFR4 range of activity effects (IC50)
Sequence of FGFR4 (P22455 22-802): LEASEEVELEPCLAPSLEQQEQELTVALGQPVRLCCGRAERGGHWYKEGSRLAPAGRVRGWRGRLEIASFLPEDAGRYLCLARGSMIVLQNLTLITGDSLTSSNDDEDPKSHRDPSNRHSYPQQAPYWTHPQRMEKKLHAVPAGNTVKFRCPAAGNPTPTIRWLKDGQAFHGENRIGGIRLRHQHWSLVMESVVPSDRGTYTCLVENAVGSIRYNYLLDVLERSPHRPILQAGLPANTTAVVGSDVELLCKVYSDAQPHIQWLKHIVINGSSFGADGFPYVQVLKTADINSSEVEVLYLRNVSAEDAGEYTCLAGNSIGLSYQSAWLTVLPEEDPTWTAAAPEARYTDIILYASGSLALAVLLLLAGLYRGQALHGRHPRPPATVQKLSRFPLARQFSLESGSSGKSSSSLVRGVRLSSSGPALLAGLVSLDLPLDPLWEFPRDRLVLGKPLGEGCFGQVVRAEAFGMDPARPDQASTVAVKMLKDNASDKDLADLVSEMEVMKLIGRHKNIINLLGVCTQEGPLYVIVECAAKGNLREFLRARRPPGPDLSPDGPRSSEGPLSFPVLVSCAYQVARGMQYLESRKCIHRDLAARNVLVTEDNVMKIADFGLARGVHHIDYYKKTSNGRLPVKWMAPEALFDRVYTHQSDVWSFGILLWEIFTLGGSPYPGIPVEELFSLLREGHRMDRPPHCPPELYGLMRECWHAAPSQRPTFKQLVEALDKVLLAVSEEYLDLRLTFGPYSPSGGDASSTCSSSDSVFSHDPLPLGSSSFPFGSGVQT

VEGFR-2 (KDR) = VEGFR-2 (KDR) (Homo sapiens (Human), UniProt P35968); assay: Kinase inhibition, Mobility-Shift Assay; type: biochemical; conditions: class; read-out: KDR activity effect range (IC50)
[1] = system: thyroid cancer cell line (TT); assay: Tumor cell proliferation inhibition (CTG, 72 h); type: cell-based; conditions: Homo sapiens; TT cells, class; read-out: TT range of activity (IC50)
[2] = system: bladder cancer cell line (RT112/84); assay: Tumor cell proliferation inhibition (CTG, 72 h); type: cell-based; conditions: Homo sapiens; RT112/84 cells, class; read-out: RT112/84 range of activity (IC50)
EGFR = EGFR (Homo sapiens (Human), UniProt P00533); assay: Kinase inhibition, Mobility-Shift Assay; type: biochemical; conditions: class; read-out: EGFR range of activity (IC50)
Sequence of EGFR (P00533 25-1210): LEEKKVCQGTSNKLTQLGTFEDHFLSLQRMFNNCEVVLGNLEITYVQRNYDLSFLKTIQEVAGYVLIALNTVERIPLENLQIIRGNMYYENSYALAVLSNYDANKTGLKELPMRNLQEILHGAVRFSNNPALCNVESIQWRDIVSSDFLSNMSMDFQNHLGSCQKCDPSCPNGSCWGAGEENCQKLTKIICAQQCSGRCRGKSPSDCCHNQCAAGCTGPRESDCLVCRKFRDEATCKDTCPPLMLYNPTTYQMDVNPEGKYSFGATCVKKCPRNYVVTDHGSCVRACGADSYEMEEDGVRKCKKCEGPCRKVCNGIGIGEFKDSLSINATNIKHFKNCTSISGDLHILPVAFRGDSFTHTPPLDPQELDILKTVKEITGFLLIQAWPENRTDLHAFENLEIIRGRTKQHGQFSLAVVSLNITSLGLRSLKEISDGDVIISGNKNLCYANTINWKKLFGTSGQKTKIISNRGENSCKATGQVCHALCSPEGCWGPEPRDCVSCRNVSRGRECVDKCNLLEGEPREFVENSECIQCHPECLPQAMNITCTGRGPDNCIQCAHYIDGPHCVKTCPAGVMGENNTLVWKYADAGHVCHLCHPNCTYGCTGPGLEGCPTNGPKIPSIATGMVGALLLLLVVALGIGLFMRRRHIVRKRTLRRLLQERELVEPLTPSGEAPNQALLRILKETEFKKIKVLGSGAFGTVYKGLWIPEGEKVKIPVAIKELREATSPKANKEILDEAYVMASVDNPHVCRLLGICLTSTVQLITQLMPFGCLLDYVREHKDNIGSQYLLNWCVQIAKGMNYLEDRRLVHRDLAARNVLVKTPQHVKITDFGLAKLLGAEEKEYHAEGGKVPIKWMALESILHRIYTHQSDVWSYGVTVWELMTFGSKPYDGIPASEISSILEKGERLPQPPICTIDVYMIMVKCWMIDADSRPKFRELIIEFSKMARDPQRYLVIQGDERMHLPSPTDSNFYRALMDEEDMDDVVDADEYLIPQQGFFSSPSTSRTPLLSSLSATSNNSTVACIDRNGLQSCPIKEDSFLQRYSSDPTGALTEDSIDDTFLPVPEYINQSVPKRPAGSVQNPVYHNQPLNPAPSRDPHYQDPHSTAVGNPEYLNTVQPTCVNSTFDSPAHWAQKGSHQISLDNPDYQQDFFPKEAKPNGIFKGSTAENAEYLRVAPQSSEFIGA

[3] = system: hepatocellular carcinoma cell line (Hep3B 2.1-7); assay: Tumor cell proliferation inhibition (CTG, 72 h); type: cell-based; conditions: Homo sapiens; Hep3B 2.1-7 cells, class; read-out: Hep3B 2.1-7 range of activity (IC50)
[4] = system: leukemia cell line (K562); assay: Tumor cell proliferation inhibition (CTG, 72 h); type: cell-based; conditions: Homo sapiens; K562 cells, class; read-out: K562 activity effect range (IC50)
[5] = system: cervical cancer cell line (Hela); assay: Tumor cell proliferation inhibition (CTG, 72 h); type: cell-based; conditions: Homo sapiens; Hela cells, class; read-out: Hela activity effect range (IC50)
FGFR2 = FGFR2 (Homo sapiens (Human), UniProt P21802); assay: Kinase inhibition, Mobility-Shift Assay; type: biochemical; conditions: class; read-out: FGFR2 range of activity effects (IC50)
Sequence of FGFR2 (P21802 22-821): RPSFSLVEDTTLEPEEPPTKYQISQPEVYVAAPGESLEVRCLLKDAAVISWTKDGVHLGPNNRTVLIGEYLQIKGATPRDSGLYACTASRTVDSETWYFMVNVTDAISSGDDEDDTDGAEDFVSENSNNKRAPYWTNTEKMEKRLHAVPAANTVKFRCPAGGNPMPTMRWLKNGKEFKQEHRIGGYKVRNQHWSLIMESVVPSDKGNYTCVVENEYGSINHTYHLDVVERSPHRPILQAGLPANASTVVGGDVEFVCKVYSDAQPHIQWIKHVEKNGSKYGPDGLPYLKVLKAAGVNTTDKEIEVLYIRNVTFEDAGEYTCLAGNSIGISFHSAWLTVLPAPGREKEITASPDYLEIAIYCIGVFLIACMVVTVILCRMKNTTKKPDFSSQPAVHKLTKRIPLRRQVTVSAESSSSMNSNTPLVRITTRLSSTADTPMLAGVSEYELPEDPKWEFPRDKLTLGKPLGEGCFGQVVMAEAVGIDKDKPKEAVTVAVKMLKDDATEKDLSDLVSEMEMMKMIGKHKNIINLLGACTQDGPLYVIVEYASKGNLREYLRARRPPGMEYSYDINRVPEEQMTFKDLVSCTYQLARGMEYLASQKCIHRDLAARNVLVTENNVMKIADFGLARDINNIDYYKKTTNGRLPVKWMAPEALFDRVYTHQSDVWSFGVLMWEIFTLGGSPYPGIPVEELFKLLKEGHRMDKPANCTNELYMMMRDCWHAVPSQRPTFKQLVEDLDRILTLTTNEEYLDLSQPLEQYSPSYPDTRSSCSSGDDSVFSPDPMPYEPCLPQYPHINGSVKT

Sequence of C-MET (P08581 25-1390): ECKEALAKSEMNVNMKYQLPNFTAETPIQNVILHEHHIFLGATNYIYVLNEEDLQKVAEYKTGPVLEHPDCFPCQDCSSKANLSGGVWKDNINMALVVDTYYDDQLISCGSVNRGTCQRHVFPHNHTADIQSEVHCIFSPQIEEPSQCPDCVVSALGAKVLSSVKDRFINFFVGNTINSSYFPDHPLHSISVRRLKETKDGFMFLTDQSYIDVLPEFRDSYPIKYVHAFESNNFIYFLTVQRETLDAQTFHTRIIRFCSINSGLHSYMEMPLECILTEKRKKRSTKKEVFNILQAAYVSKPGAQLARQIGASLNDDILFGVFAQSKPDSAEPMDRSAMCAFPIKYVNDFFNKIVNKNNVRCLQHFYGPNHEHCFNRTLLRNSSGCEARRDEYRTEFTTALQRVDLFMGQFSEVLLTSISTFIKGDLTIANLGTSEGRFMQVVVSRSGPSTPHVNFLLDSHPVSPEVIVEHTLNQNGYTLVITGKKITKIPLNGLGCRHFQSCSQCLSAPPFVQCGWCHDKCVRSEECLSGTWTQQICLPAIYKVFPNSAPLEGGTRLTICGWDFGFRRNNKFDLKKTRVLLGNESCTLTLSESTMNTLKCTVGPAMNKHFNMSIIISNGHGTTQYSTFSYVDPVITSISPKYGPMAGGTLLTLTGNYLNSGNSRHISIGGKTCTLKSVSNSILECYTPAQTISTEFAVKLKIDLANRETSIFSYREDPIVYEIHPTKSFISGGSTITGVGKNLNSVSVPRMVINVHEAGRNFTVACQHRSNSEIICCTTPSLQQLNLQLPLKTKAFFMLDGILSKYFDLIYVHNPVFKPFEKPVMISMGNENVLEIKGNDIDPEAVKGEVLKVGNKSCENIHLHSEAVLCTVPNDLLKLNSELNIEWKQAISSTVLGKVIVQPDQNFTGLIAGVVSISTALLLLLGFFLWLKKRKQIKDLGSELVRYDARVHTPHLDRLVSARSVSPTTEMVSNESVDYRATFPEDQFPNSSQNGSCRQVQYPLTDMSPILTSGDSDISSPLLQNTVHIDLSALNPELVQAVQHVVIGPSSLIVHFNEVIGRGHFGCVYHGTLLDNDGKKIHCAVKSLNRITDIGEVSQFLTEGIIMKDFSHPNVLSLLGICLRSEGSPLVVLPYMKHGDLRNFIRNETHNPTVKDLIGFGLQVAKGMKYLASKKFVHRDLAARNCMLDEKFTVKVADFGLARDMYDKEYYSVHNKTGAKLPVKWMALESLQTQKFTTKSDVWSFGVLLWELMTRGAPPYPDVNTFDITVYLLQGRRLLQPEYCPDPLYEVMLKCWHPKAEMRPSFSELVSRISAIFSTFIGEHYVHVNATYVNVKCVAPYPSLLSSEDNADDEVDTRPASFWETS

IC50 (C-MET)	IC50 (FGFR4)	IC50 (VEGFR-2 (KDR))	IC50 [1]	IC50 [2]	IC50 (EGFR)	IC50 [3]	IC50 [4]	IC50 [5]	IC50 (FGFR2)	Structure (SMILES)
> 100 nM	> 100 nM	> 10 nM	> 10000 nM	> 1000 nM	> 100 nM	> 5000 nM	> 10000 nM	> 10000 nM	> 100 nM	COc1cc2nccc(Oc3c(F)cc(NC(=O)N(C)C(C)C)c(Cl)c3F)c2cc1C(N)=O [III-02]
> 100 nM	> 100 nM	> 10 nM	> 10000 nM	> 1000 nM	> 100 nM	> 5000 nM	> 10000 nM	> 10000 nM	> 100 nM	CCC(C)NC(=O)Nc1cc(F)c(Oc2ccnc3cc(OC)c(C(N)=O)cc23)c(F)c1Cl (centres unmarked) [III-03]
> 100 nM	> 100 nM	> 10 nM	> 10000 nM	> 1000 nM	> 100 nM	> 5000 nM	> 10000 nM	> 10000 nM	> 100 nM	COc1cc2nccc(Oc3c(F)cc(NC(=O)NC(C)(C)C)c(Cl)c3F)c2cc1C(N)=O [III-04]
> 100 nM	> 100 nM	> 10 nM	> 10000 nM	> 1000 nM	> 100 nM	> 5000 nM	> 10000 nM	> 10000 nM	> 100 nM	COc1cc2nccc(Oc3c(F)cc(NC(=O)NCC(F)F)c(Cl)c3F)c2cc1C(N)=O [III-05]
> 100 nM	> 100 nM	> 10 nM	> 10000 nM	> 1000 nM	> 100 nM	> 5000 nM	> 10000 nM	> 10000 nM	> 100 nM	COc1cc2nccc(Oc3c(F)cc(NC(=O)NCCO)c(Cl)c3F)c2cc1C(N)=O [III-06]
> 100 nM	> 100 nM	> 10 nM	> 10000 nM	> 1000 nM	> 100 nM	> 5000 nM	> 10000 nM	> 10000 nM	> 100 nM	COc1cc2nccc(Oc3c(F)cc(NC(=O)N[C@@H](C)CO)c(Cl)c3F)c2cc1C(N)=O [III-07]
> 100 nM	> 100 nM	> 10 nM	> 10000 nM	> 1000 nM	> 100 nM	> 5000 nM	> 10000 nM	> 10000 nM	> 100 nM	COc1cc2nccc(Oc3c(F)cc(NC(=O)N[C@H](C)CO)c(Cl)c3F)c2cc1C(N)=O [III-08]
> 100 nM	> 100 nM	> 10 nM	> 10000 nM	> 1000 nM	> 100 nM	> 5000 nM	> 10000 nM	> 10000 nM	> 100 nM	COc1cc2nccc(Oc3c(F)cc(NC(=O)NC[C@H](C)O)c(Cl)c3F)c2cc1C(N)=O [III-09]
> 100 nM	> 100 nM	> 10 nM	> 10000 nM	> 1000 nM	> 100 nM	> 5000 nM	> 10000 nM	> 10000 nM	> 100 nM	COc1cc2nccc(Oc3c(F)cc(NC(=O)NC[C@@H](C)O)c(Cl)c3F)c2cc1C(N)=O [III-10]
> 100 nM	> 100 nM	> 10 nM	> 10000 nM	> 1000 nM	> 100 nM	> 5000 nM	> 10000 nM	> 10000 nM	> 100 nM	COc1cc2nccc(Oc3c(F)cc(NC(=O)NC(C)(C)CO)c(Cl)c3F)c2cc1C(N)=O [III-11]
> 100 nM	> 100 nM	> 10 nM	> 10000 nM	> 1000 nM	> 100 nM	> 5000 nM	> 10000 nM	> 10000 nM	> 100 nM	COc1cc2nccc(Oc3c(F)cc(NC(=O)NCC(C)(C)O)c(Cl)c3F)c2cc1C(N)=O [III-12]
> 100 nM	> 100 nM	> 10 nM	> 10000 nM	> 1000 nM	> 100 nM	> 5000 nM	> 10000 nM	> 10000 nM	> 100 nM	COc1cc2nccc(Oc3c(F)cc(NC(=O)NC(CO)CO)c(Cl)c3F)c2cc1C(N)=O [III-13]
> 100 nM	> 100 nM	> 10 nM	> 10000 nM	> 1000 nM	> 100 nM	> 5000 nM	> 10000 nM	> 10000 nM	> 100 nM	COc1cc2nccc(Oc3c(F)cc(NC(=O)NC[C@H](O)CO)c(Cl)c3F)c2cc1C(N)=O [III-14]
> 100 nM	> 100 nM	> 10 nM	> 10000 nM	> 1000 nM	> 100 nM	> 5000 nM	> 10000 nM	> 10000 nM	> 100 nM	COc1cc2nccc(Oc3c(F)cc(NC(=O)NC[C@@H](O)CO)c(Cl)c3F)c2cc1C(N)=O [III-15]
60 to 100 nM	> 100 nM	2 to 10 nM	> 10000 nM	200 to 1000 nM	> 100 nM	2500 to 5000 nM	5000 to 10000 nM	> 10000 nM	30 to 100 nM	COc1cc2nccc(Oc3c(F)cc(NC(=O)NC4CC4)c(F)c3F)c2cc1C(N)=O [III-16]
> 100 nM	> 100 nM	> 10 nM	> 10000 nM	> 1000 nM	> 100 nM	> 5000 nM	> 10000 nM	> 10000 nM	> 100 nM	COc1cc2nccc(Oc3c(F)cc(NC(=O)NC4CC4)c(Br)c3F)c2cc1C(N)=O [III-17]
> 100 nM	> 100 nM	> 10 nM	> 10000 nM	> 1000 nM	> 100 nM	> 5000 nM	> 10000 nM	> 10000 nM	> 100 nM	COc1cc2nccc(Oc3c(Br)cc(NC(=O)NC4CC4)c(Cl)c3F)c2cc1C(N)=O [III-18]
> 100 nM	> 100 nM	> 10 nM	> 10000 nM	> 1000 nM	> 100 nM	> 5000 nM	> 10000 nM	> 10000 nM	> 100 nM	COc1cc2nccc(Oc3c(Cl)cc(NC(=O)NC4CC4)c(Cl)c3F)c2cc1C(N)=O [III-19]
> 100 nM	> 100 nM	> 10 nM	> 10000 nM	> 1000 nM	> 100 nM	> 5000 nM	> 10000 nM	> 10000 nM	> 100 nM	COc1cc2nccc(Oc3c(Cl)cc(NC(=O)NC4CC4)c(Br)c3F)c2cc1C(N)=O [III-20]
> 100 nM	> 100 nM	> 10 nM	> 10000 nM	> 1000 nM	> 100 nM	> 5000 nM	> 10000 nM	> 10000 nM	> 100 nM	COc1cc2nccc(Oc3c(F)cc(NC(=O)NC4(C)CC4)c(F)c3F)c2cc1C(N)=O [III-21]
> 100 nM	> 100 nM	> 10 nM	> 10000 nM	> 1000 nM	> 100 nM	> 5000 nM	> 10000 nM	> 10000 nM	> 100 nM	COc1cc2nccc(Oc3c(F)cc(NC(=O)NC4(C)CC4)c(Cl)c3F)c2cc1C(N)=O [III-22]
> 100 nM	> 100 nM	> 10 nM	> 10000 nM	> 1000 nM	> 100 nM	> 5000 nM	> 10000 nM	> 10000 nM	> 100 nM	COc1cc2nccc(Oc3c(F)cc(NC(=O)NC4CC4(F)F)c(F)c3F)c2cc1C(N)=O (centres unmarked) [III-23]
> 100 nM	> 100 nM	> 10 nM	> 10000 nM	> 1000 nM	> 100 nM	> 5000 nM	> 10000 nM	> 10000 nM	> 100 nM	COc1cc2nccc(Oc3c(F)cc(NC(=O)NC4CC4(F)F)c(Cl)c3F)c2cc1C(N)=O (centres unmarked) [III-24]
> 100 nM	> 100 nM	> 10 nM	> 10000 nM	> 1000 nM	> 100 nM	> 5000 nM	> 10000 nM	> 10000 nM	> 100 nM	COc1cc2nccc(Oc3c(F)cc(NC(=O)NCC4CC4)c(Cl)c3F)c2cc1C(N)=O [III-25]
> 100 nM	> 100 nM	> 10 nM	> 10000 nM	> 1000 nM	> 100 nM	> 5000 nM	> 10000 nM	> 10000 nM	> 100 nM	COc1cc2nccc(Oc3c(F)cc(NC(=O)NC4CCC4)c(Cl)c3F)c2cc1C(N)=O [III-26]
> 100 nM	> 100 nM	> 10 nM	> 10000 nM	> 1000 nM	> 100 nM	> 5000 nM	> 10000 nM	> 10000 nM	> 100 nM	COc1cc2nccc(Oc3c(F)cc(NC(=O)NC4COC4)c(Cl)c3F)c2cc1C(N)=O [III-27]
